2 molecules from patent publication US20250135038A1, “COMPOSITIONS AND METHODS FOR IMPROVED TREATMENT OF POMPE DISEASE” (Astellas Gene Therapies, Inc., priority 2022, published 2025) can be followed below.

In the data set the test system is liver transaminases (ALT, AST) and bilirubin. Put plainly: Longitudinal monitoring of liver transaminases (ALT, AST) and bilirubin, relative to prednisolone prophylaxis. The data set is classed as in vivo, human. An excerpt:
Abbreviations: L, liter; U/L, units per liter; […], upper limit of normal.
Liver transaminases and bilirubin were also monitored over time for patients 2002, 2003, and 2009 (FIG. 11-13).

`C[C@]12C=CC(=O)C=C1CC[C@@H]1[C@@H]2C(=O)C[C@@]2(C)[C@H]1CC[C@]2(O)C(=O)CO` [prednisone]: the Liver function parameters result (Patient 2002 (3×10^13 vg/kg), reduced dose of prophylactic prednisone, throughout steroid tapering and >1 year follow up) is recorded as “remained within the normal range”.
`C[C@]12C=CC(=O)C=C1CC[C@@H]1[C@@H]2[C@@H](O)C[C@@]2(C)[C@H]1CC[C@]2(O)C(=O)CO` [prednisolone]: where the note is “combination of the viral vector and an anti-transaminitis agent (e.g., prednisolone), conclusion of Example 1”, the “Prophylaxis of liver syndromes associated with GAA gene therapy” value is recorded as “can serve as a prophylactic treatment for liver syndromes”. Where the note is “participant 2001, after AAV vector 3×10^13 vg/kg”, the “Response of the rise in transaminases to re-initiation of corticosteroid treatment” value is “responded well”. Besides, the “Response of transaminitis to steroid schedule” value by setting is: (participant 2003, after AAV vector 6×10^13 vg/kg) “responsive to a slowing in the steroid tapering schedule and a small increment in steroid dose”; (participant 2009, after AAV vector 6×10^13 vg/kg) “responsive to a slowing in the steroid tapering schedule”.
